The test system of assay [1] is lupin. As for the experimental part:
The compounds and mixtures of Examples 1 and 2 were tested for their activity for root penetration inhibition as specified in DIN 4062 (lupin test): […]

In assay [2] the test system is undesired plants. The settings on record: crop protection; cited from earlier work.

The structures appear in SMILES notation. Like-named read-outs stand apart in the source and are kept apart here.

Regarding `Cc1cc(Cl)ccc1O[C@@H](C)C(=O)OCCOCCOCCOCCOC(=O)[C@H](C)Oc1ccc(Cl)cc1C` [Example 4, diester of tetraethylene glycol with S-(−)-2-(4-chloro-2-methylphenoxy)propionic acid], the “Root penetration into (number)” value was >50 number in assay [1] (Concentration 0.1%), >50 number in assay [1] (Concentration 0.2%), >50 number in assay [1] (Concentration 0.5%) and “approx. 40 number” in assay [1] (Concentration 1.0%). Further, the “Root penetration through (number)” value in assay [1] (Concentration 0.1%) was >50 number; in assay [1] (Concentration 0.2%), >50 number; in assay [1] (Concentration 0.5%), >50 number; in assay [1] (Concentration 1.0%), “approx. 40 number”.
In the case of `Cc1cc(Cl)ccc1OC(C)C(=O)OCCOCCOCCOCCOC(=O)C(C)Oc1ccc(Cl)cc1C` (racemic) [Example 2, diester of tetraethylene glycol with rac-2-(4-chloro-2-methylphenoxy)propionic acid], the “Root penetration into (number)” value was “approx. 40 number” in assay [1] (Concentration 0.1%), “approx. 40 number” in assay [1] (Concentration 0.2%), “approx. 10 number” in assay [1] (Concentration 0.5%) and 0 number in assay [1] (Concentration 1.0%). In addition, the “Root penetration through (number)” value is given as 1 number in assay [1] (Concentration 0.1%), 0 number in assay [1] (Concentration 0.2%), 0 number in assay [1] (Concentration 0.5%) and 0 number in assay [1] (Concentration 1.0%).
As to `Cc1cc(Cl)ccc1O[C@H](C)C(=O)OCCOCCOCCOCCOC(=O)[C@@H](C)Oc1ccc(Cl)cc1C` [Example 1, diester of tetraethylene glycol with R-(+)-2-(4-chloro-2-methylphenoxy)propionic acid], the entries for the “Root penetration into (number)” value in assay [1] (Concentration 0.1%), in assay [1] (Concentration 0.2%) and in assay [1] (Concentration 0.5%) were “approx. 40 number”, “approx. 15 number” and 1 number, respectively. The “Root penetration through (number)” value in assay [1] (Concentration 0.1%), in assay [1] (Concentration 0.2%) and in assay [1] (Concentration 0.5%) was 0 number throughout.
`Cc1cc(Cl)ccc1O[C@H](C)C(=O)O` [R-(+) isomer, R-(+)-2-(4-chloro-2-methylphenoxy)propionic acid]: in assay [2], the “herbicidal effectiveness compared with the S-(−) isomer or the racemic mixture” value is listed as “markedly more effective”.

The record behind these values is patent US20070037709A1, “Polyethylene glycol esters of r-(+)-mcpp acid” (priority 2003, published 2007).
